Source: patent US8722864B2 (Nutek Pharma Ltd., priority 2010, dated 2014)
Several values for one entry are separate records, joined by “and”; a condition that tells them apart may be missing. Equal values may be shown once.

How the values were obtained:
[1] = Solution stability (hydrolysis) in phosphate-buffered D2O at pD 5, 6, 7 monitored by 1H NMR; format: physicochemical; details: for stability to the pD's (in words): pD 5, 6, 7 in D2O; for Time to % hydrolysis t10% / Time to % hydrolysis t25% / Time to % hydrolysis t50%: 23° C.; for change in 1H NMR spectra: after 167 days, pD 5, 6, 7
Experimental: 10 mL (11.07 g) D2O was placed in 3 separate vials with a stir bar and 0.002 moles (0.272 g) monobasic potassium phosphate (KH2PO4) was added to each. With the pD metered, NaOD/D2O was added drop-wise to each to adjust the pD's to 5.0, 6.0, and 7.0. Each of these solutions was gently boiled before use. Thus each vial contained […] phosphate buffered solution. […] The sample was sterilized by heating for 10 seconds, and after it had cooled down to ambient temperature (about 1 minute), 0.3 mL of one of the 0.2 mM 3 buffered solutions was added. The 0.6 mL sample was then placed in a sterilized NMR tube and the tube sealed and labeled. Each of the samples was stored at 23° C. protected from the light and monitored by ^1H NMR (64 scans for each sample) periodically.

[2] = Water (D2O) solubility by 1H NMR against DSS standard; format: physicochemical; details: for solubility at 3 days: water, thermodynamic from solid
Experimental: The method use involved stirring the sample in D2O for a period of 3 days, followed by filtration using a 0.2μ syringe filter. A measured volume of this saturated solution was diluted with a standard solution of DSS in D2O, and a ^1H NMR was taken. Integration of the DSS peaks compared to that of the analog would allow for the determination of its concentration, and thus the concentration of the saturated solution.

in vivo = details: male, Sprague-Dawley, rat, iv
[3] = rat, in vivo, iv; for AUCinf/AUClast of the pro-drug: male, Sprague-Dawley
[4] = Pharmacokinetics after intravenous administration in male Sprague-Dawley rats; details: for mean concentration of acetaminophen in rat plasma or blood: 66 μmol/kg nominal, plasma (blood for 18, 19);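 as to all read-outs here: rats fasted overnight before dosing and fed about 4 h afterwards, with serial blood sampled through a carotid artery catheter at each time point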
[5] = water; cited from earlier work
[6] = stirred 3 days in D2O, 0.2 μ filtered
[7] = acetaminophen analyte after IV dose of acetaminophen or pro-drug, rat

CC(=O)Nc1ccc(O[C@@H]2C=C[C@H](O)[C@@H](CO)O2)cc1 [compound 1, N-(4-((2R,5S,6R)-5-hydroxy-6-(hydroxymethyl)-5,6-dihydro-2H-pyran-2-yloxy)phenyl)acetamide]
stability to the pD's (in words) [1]: least stable
Time to % hydrolysis t10% ([1]; pD 5, D2O): 0.3 days
Time to % hydrolysis t25% ([1]; pD 5, D2O): 0.8 days
Time to % hydrolysis t50% ([1]; pD 5, D2O): 2.0 days
Time to % hydrolysis t10% ([1]; pD 6, D2O): 2.25 days
Time to % hydrolysis t25% ([1]; pD 6, D2O): 6.25 days
Time to % hydrolysis t50% ([1]; pD 6, D2O): 17 days
Time to % hydrolysis t10% ([1]; pD 7, D2O): 5.5 days
Time to % hydrolysis t25% ([1]; pD 7, D2O): 26 days
Time to % hydrolysis t50% ([1]; pD 7, D2O): 70 days
relative molar solubility [2]: 0.6
solubility at 3 days [2]: 14000 µg/mL and 53000 µM

CC(=O)Nc1ccc(O[C@H]2O[C@H](CO)[C@@H](O[C@H]3O[C@H](CO)[C@@H](O)[C@H](O)[C@H]3O)[C@H](O)[C@@H]2O)cc1 [compound 5, 1-(4-acetaminophenoxy) 2-epi maltose]
change in 1H NMR spectra [1]: no change
AUC(0-inf) (in vivo): 1.69 µM·h
AUC(0-t) (in vivo): 1.57 µM·h
C0 (in vivo): 2.49 µM
MRT inf (in vivo): 39.2 min
Vd (in vivo): 26.8 L/kg
clearance (in vivo): 759 mL/min/kg
half-life (in vivo): 79.2 min
relative molar solubility [2]: >14
solubility (in words) [2]: highest solubility
solubility at 3 days [2]: > 621000 µg/mL and > 1.3e+06 µM
AUCinf/AUClast of the pro-drug [3]: 106%
AUC of the pro-drug (in words) [3]: high
half-lives of the pro-drug (in words) [3]: relatively high

CC(=O)Nc1ccc(O[C@H]2O[C@H](CO)[C@@H](O)[C@H](O)[C@@H]2O)cc1 [compound 8, 1-(4′-acetamidophenoxy) mannose]
change in 1H NMR spectra [1]: no change
AUC(0-inf) (in vivo): 44.9 µM·h
AUC(0-t) (in vivo): 44.9 µM·h
C0 (in vivo): 336 µM
MRT inf (in vivo): 14.2 min
Vd (in vivo): 0.349 L/kg
clearance (in vivo): 24.7 mL/min/kg
half-life (in vivo): 39.5 min
relative molar solubility [2]: 1.8
solubility at 3 days [2]: 51000 µg/mL and 164000 µM
AUCinf/AUClast of the pro-drug [3]: 100%
AUC of the pro-drug (in words) [3]: low

CC(=O)Nc1ccc(O[C@@H]2CCC(O)[C@@H](CO)O2)cc1 (some centres unmarked) [compound 12, 1-(4′-acetamidophenoxy) 2,3-dideoxy glucose]
stability to the pD's (in words) [1]: a lot of instability
Time to % hydrolysis t10% ([1]; pD 5, D2O): 7 days
Time to % hydrolysis t25% ([1]; pD 5, D2O): 20 days
Time to % hydrolysis t50% ([1]; pD 5, D2O): 58 days
Time to % hydrolysis t10% ([1]; pD 6, D2O): 48 days
relative molar solubility [2]: 0.3
solubility at 3 days [2]: 9000 µg/mL and 31000 µM

CC(=O)Nc1ccc(O[C@H]2O[C@H](COC(C)=O)[C@@H](O)[C@H](O)[C@@H]2O)cc1 [compound 15]
AUC(0-inf) (in vivo): 14.2 µM·h
AUC(0-t) (in vivo): 14.2 µM·h
C0 (in vivo): 95.8 µM
MRT inf (in vivo): 10.2 min
Vd (in vivo): 0.8 L/kg
clearance (in vivo): 78.7 mL/min/kg
half-life (in vivo): 13.2 min
relative molar solubility [2]: 5.6
solubility at 3 days [2]: 203000 µg/mL and 570000 µM
AUCinf/AUClast of the pro-drug [3]: 100%
AUC of the pro-drug (in words) [3]: low

CCCC(=O)OC[C@H]1O[C@H](Oc2ccc(NC(C)=O)cc2)[C@@H](O)[C@@H](O)[C@@H]1O [compound 18, 1-(4′-acetamidophenoxy)-6-O-butyrylmannose]
AUC(0-inf) (in vivo): 3.31 µM·h
AUC(0-t) (in vivo): 3.3 µM·h
C0 (in vivo): 43.1 µM
MRT inf (in vivo): 4.56 min
Vd (in vivo): 1.56 L/kg
clearance (in vivo): 345 mL/min/kg
half-life (in vivo): 3.13 min
relative molar solubility [2]: 0.81
solubility at 3 days [2]: 30000 µg/mL and 77000 µM
AUCinf/AUClast of the pro-drug [3]: 100%
AUC of the pro-drug (in words) [3]: low

CC(=O)Nc1ccc(O[C@H]2O[C@H](COC(=O)C(C)C)[C@@H](O)[C@H](O)[C@@H]2O)cc1 [compound 19, 1-(4′-acetamidophenoxy)-6-O-isobutyrylmannose]
AUC(0-inf) (in vivo): 3.68 µM·h
AUC(0-t) (in vivo): 3.68 µM·h
C0 (in vivo): 31.1 µM
MRT inf (in vivo): 8.7 min
Vd (in vivo): 1.77 L/kg
clearance (in vivo): 203 mL/min/kg
half-life (in vivo): 14.6 min
relative molar solubility [2]: 0.43
solubility at 3 days [2]: 16000 µg/mL and 41000 µM
AUCinf/AUClast of the pro-drug [3]: 100%
AUC of the pro-drug (in words) [3]: low

CC(=O)Nc1ccc(O[C@H]2O[C@H](COC(=O)CCC(=O)O)[C@@H](O)[C@H](O)[C@@H]2O)cc1 [compound 20]
AUC(0-inf) (in vivo): 51.9 µM·h
AUC(0-t) (in vivo): 51.8 µM·h
C0 (in vivo): 218 µM
MRT inf (in vivo): 25.2 min
Vd (in vivo): 0.549 L/kg
clearance (in vivo): 22.7 mL/min/kg
half-life (in vivo): 123 min
AUCinf/AUClast of the pro-drug [3]: 100%
AUC of the pro-drug (in words) [3]: high
half-lives of the pro-drug (in words) [3]: relatively high

CC(=O)Nc1ccc(O[C@H]2O[C@H](C)[C@@H](O)[C@H](O)[C@@H]2O)cc1 [compound 23, 1-(4′-acetamidophenoxy)-6-deoxymannose]
AUC(0-inf) (in vivo): 44.1 µM·h
AUC(0-t) (in vivo): 44 µM·h
C0 (in vivo): 123 µM
MRT inf (in vivo): 52.7 min
Vd (in vivo): 1.58 L/kg
clearance (in vivo): 24.9 mL/min/kg
half-life (in vivo): 116 min
relative molar solubility [2]: 2.1
solubility at 3 days [2]: 60000 µg/mL and 202000 µM
AUCinf/AUClast of the pro-drug [3]: 100%
AUC of the pro-drug (in words) [3]: high
half-lives of the pro-drug (in words) [3]: relatively high

acetaminophen
change in 1H NMR spectra [1]: no change
D2O solubility (mM) [2, 6]: 95 mM
D2O solubility (mg/mL) [2, 6]: 13 mg/mL
mean concentration of acetaminophen in rat plasma or blood ([4]; 2 min after IV dose of acetaminophen or pro-drug): 133.854 µM
mean concentration of acetaminophen in rat plasma or blood ([4]; 5 min after IV dose of acetaminophen or pro-drug): 89.75 µM
mean concentration of acetaminophen in rat plasma or blood ([4]; 0.250 h after IV dose of acetaminophen or pro-drug): 45.118 µM
mean concentration of acetaminophen in rat plasma or blood ([4]; 0.500 h after IV dose of acetaminophen or pro-drug): 23.661 µM
mean concentration of acetaminophen in rat plasma or blood ([4]; 2.00 h after IV dose of acetaminophen or pro-drug): 0.823 µM
mean concentration of acetaminophen in rat plasma or blood ([4]; 4.00 h after IV dose of acetaminophen or pro-drug): 0.528 µM
mean concentration of acetaminophen in rat plasma or blood ([4]; 6.00 h after IV dose of acetaminophen or pro-drug): 0.237 µM
mean concentration of acetaminophen in rat plasma or blood ([4]; 8.00 h after IV dose of acetaminophen or pro-drug): 0.108 µM
AUCinf of acetaminophen [4, 7]: 41.231 µM·h
AUCinf/AUClast of acetaminophen [4, 7]: 100%
AUClast of acetaminophen [4, 7]: 41.031 µM·h
MRTinf of acetaminophen [4, 7]: 39.7 min
Vdss of acetaminophen [4, 7]: 1.06 L/kg
t1/2 of acetaminophen from the pro-drug [4, 7]: 148 min
C0 ([4]; read-out: C0 of acetaminophen, acetaminophen analyte after IV dose of acetaminophen or pro-drug, extrapolated to time 0): 175 µM
literature value of acetaminophen's solubility [5]: 14 mg/mL
